Legend:
[1] = Plasma and urine pharmacokinetics of alogliptin after a single oral dose (LC-MS/MS, noncompartmental)
[2] = Safety: treatment-emergent adverse events, laboratory tests, vital signs, ECG;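 further: dosing after fasting overnight (8 h minimum), clinic stay to day 2, outpatient visits on days 3 and 4, and a telephone check for adverse events about 14 days after study exit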
[3] = Population PK/PD model fitted to study data: PK parameter estimates; type: in vivo, human; conditions: PK/PD model typical value
From the text: To bridge the adult and pediatric PK, the PK model included weight as an initial covariate on clearance and volume of distribution parameters, as shown in the following equation: Pi=Ppop⋅WTi/WTreference^b⋅e^ηi

[4] = tested on: blood pressure; conditions: patients with T2DM; cited from earlier work
[5] = pediatric subjects, 12.5-mg dose vs adults 25 mg
[6] = 12.5 mg single dose, Group 1 10 to <14 years, N = 5
[7] = 12.5 mg single dose, Group 2 14 to <18 years, N = 8
[8] = 25 mg single dose, Group 1 10 to <14 years, N = 4
[9] = 25 mg single dose, Group 2 14 to <18 years, N = 7
[10] = 25 mg single dose, Group 3 Adults, N = 22
[11] = entire study period, all 46 subjects

For `Cn1c(=O)cc(N2CCC[C@@H](N)C2)n(Cc2ccccc2C#N)c1=O` [alogliptin], the “mean CL/F higher in all pediatric subjects compared with adult subjects” value ([1]; groups 1 and 2 vs adults) was “up to 37%”, the Tmax ([1]; human, plasma, po) was 2 to 4 h and the “correlation between dose-normalized AUC0-inf and creatinine clearance” value ([1]; pediatric and adult subjects) was “no correlations were observed”. The “mean AUC0-inf lower than in adults” value [1, 5] was 54%, the “mean Cmax lower than in adults” value [1, 5] was 58% and the “mean AUC0-inf lower than in adults receiving the 25-mg dose” value ([1]; pediatric subjects, 25-mg dose) was 23%. The “mean Cmax lower than in adults receiving the 25-mg dose” value ([1]; pediatric subjects, 25-mg dose) was 26%, the “Mild TEAEs: Subjects, N (%)” value [2, 6] was 3 (60.0) and the “Moderate TEAEs: Subjects, N (%)” value [2, 6] was 0. The “Not related TEAEs: Subjects, N (%)” value [2, 6] was 1 (20.0), the “Related TEAEs: Subjects, N (%)” value [2, 6] was 2 (40.0) and the “Severe TEAEs: Subjects, N (%)” value [2, 6] was 0. The “TEAEs: Subjects, N (%)” value [2, 6] was 3 (60.0), the “Mild TEAEs: Subjects, N (%)” value [2, 7] was 5 (62.5) and the “Moderate TEAEs: Subjects, N (%)” value [2, 7] was 0. The “Not related TEAEs: Subjects, N (%)” value [2, 7] was 3 (37.5), the “Related TEAEs: Subjects, N (%)” value [2, 7] was 2 (25.0) and the “Severe TEAEs: Subjects, N (%)” value [2, 7] was 0. For the same compound, the “TEAEs: Subjects, N (%)” value [2, 7] was 5 (62.5), the “Mild TEAEs: Subjects, N (%)” value [2, 8] was 1 (25.0) and the “Moderate TEAEs: Subjects, N (%)” value [2, 8] was 0. For the same compound, the “Not related TEAEs: Subjects, N (%)” value [2, 8] was 1 (25.0), the “Related TEAEs: Subjects, N (%)” value [2, 8] was 0 and the “Severe TEAEs: Subjects, N (%)” value [2, 8] was 0. For the same compound, the “TEAEs: Subjects, N (%)” value [2, 8] was 1 (25.0), the “Mild TEAEs: Subjects, N (%)” value [2, 9] was 2 (28.6) and the “Moderate TEAEs: Subjects, N (%)” value [2, 9] was 0. For the same compound, the “Not related TEAEs: Subjects, N (%)” value [2, 9] was 2 (28.6), the “Related TEAEs: Subjects, N (%)” value [2, 9] was 0 and the “Severe TEAEs: Subjects, N (%)” value [2, 9] was 0. The “TEAEs: Subjects, N (%)” value [2, 9] was 2 (28.6), the “Mild TEAEs: Subjects, N (%)” value [2, 10] was 7 (31.8) and the “Moderate TEAEs: Subjects, N (%)” value [2, 10] was 1 (4.5). For the same compound, the “Not related TEAEs: Subjects, N (%)” value [2, 10] was 4 (18.2), the “Related TEAEs: Subjects, N (%)” value [2, 10] was 5 (22.7) and the “Severe TEAEs: Subjects, N (%)” value [2, 10] was 1 (4.5). For the same compound, the “TEAEs: Subjects, N (%)” value [2, 10] was 9 (40.9), the “AEs leading to study drug discontinuation” value ([2]; entire study) was “No AEs led to study drug discontinuation” and the “abnormal ECG results reported as TEAE” value ([2]; entire study) was “No abnormal ECG result was reported as a TEAE”. The deaths ([2]; entire study) was “no deaths occurred”, the “number of TEAEs” value [2, 11] was 36 and the “subjects who experienced TEAEs” value [2, 11] was 20. For the same compound, the tolerability ([2]; single doses 12.5 and 25 mg, pediatric and adult subjects) was “well tolerated”, the “Absorption rate constant [KA] in adult subjects” value ([3]; adult subjects) was 1.66 h⁻¹ and the “Oral clearance [CL/F] in adult subjects” value ([3]; adult subjects, reference body weight 70 kg) was 13.0 L/h. The “Absorption rate constant [KA] in pediatric subjects” value ([3]; pediatric subjects) was 0.590 h⁻¹, the “Oral clearance [CL/F] in pediatric subjects” value ([3]; pediatric subjects, reference body weight 70 kg) was 14.4 L/h and the Vd/F ([3]; human, plasma, oral, read-out: Central volume of distribution [V2/F]) was 125 L. The “effect on blood pressure” value [4] was “lower blood pressure”.

Reference: paper PMC5306220 (European Journal of Clinical Pharmacology, 2016)
